# Key:
# S. cerevisiae = assay: dig assay (nonfilamentous agar invasion) on YPD gradient plates; format: cell-based; settings: YPD agar with fluconazole gradient, two days, washed with water (FIG. 12)
# From the text: Another example of a screen is based on the observation that yeast from haploid S. cerevisiae invade agar when grown on rich (YPD) medium without forming pseudohyphae. This nonfilamentous invasion behavior has been termed “digging,” and the assay used to detect this behavior has been termed the “dig assay.” Roberts and Fink, supra. […] Mutant strains defective for digging are referred to as “dig minus,” or “dig−.” The correlation of pseudohyphal invasion and behavior in the dig assay is an essential aspect of this screen. The dig assay is comparatively easy to perform relative to pseudohyphal invasion assays, and, as it occurs in haploid cells, is more amenable to genetic approaches that rely upon recessive mutations.
# An example of the dig assay is given below. To test whether a chemical compound would affect the nonfilamentous agar invasion behavior of nonmutant S. cerevisiae or C. albicans at concentrations much lower than the lowest growth inhibitory concentration, these fungi were spotted onto agar plates containing rich medium (YPD) and a gradient of the antifungal fluconazole. The plates were then incubated for two days at optimum growth temperatures and washed with water. […] This assay can be performed on other dimorphic fungi, such as U. maydis, as well as on other fungi. […]
# C. albicans = assay: as above; format: cell-based; settings: YPD agar with fluconazole gradient, two days, washed with water (FIG. 12)
# From the text: We have discovered that pathogenic fungi can display similar digging behavior, characterized by increased invasion into or adherence to a defined substrate. […] This behavior is similar to the reported digging behavior of S. cerevisiae. As is true for S. cerevisiae, non-hyphal agar invasion by any given C. albicans mutant strain correlates with the ability of that strain to form filaments under filament-inducing conditions (e.g., agar+serum). Thus, screening for compounds that block the digging phenotype in fungi will allow for identification of compounds that block filament formation and, as a result, pathogenesis. These compounds are considered useful as fungicides or fungistats. Similarly, screening for compounds that increase substrate invasion will allow for identification of compounds which may also increase production or yield of secondary metabolites.
# An example of the dig assay is given below. To test whether a chemical compound would affect the nonfilamentous agar invasion behavior of nonmutant S. cerevisiae or C. albicans at concentrations much lower than the lowest growth inhibitory concentration, these fungi were spotted onto agar plates containing rich medium (YPD) and a gradient of the antifungal fluconazole. The plates were then incubated for two days at optimum growth temperatures and washed with water. […]
compound,measurement,setting,value
OC(Cn1cncn1)(Cn1cncn1)c1ccc(F)cc1F [fluconazole],inhibition of agar invasion relative to growth inhibition,S. cerevisiae,inhibition of agar invasion at significantly lower concentrations of fluconazole than those necessary to inhibit growth
same,inhibition of agar invasion relative to growth inhibition,C. albicans,inhibition of agar invasion at significantly lower concentrations of fluconazole than those necessary to inhibit growth

# From patent US6599705B2, “Regulation of fungal gene expression” (priority 1997, dated 2003)
